# Reference: ChEMBL document CHEMBL1201862, “PubChem BioAssay data set” (2004)
#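 Exposure lasted 48 hours, with cells grown in 96-well plates and compounds tested at five concentrations. GI50 marks 50% less growth.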 The source made the active and inactive calls. Cut-off read from the data, not from the text of the source: active = GI50 up to about 1.1 µM and inactive = higher.
# How the values were obtained:
# Assay in all cases: NCI tumour cell line growth inhibition, 48 h
# [1] = test system: SR
# [2] = test system: NCI-H226
# [3] = test system: MDA-MB-435
# [4] = test system: HCT-116
# [5] = test system: 786-0
# [6] = test system: EKVX
# [7] = test system: COLO 205
# [8] = test system: HOP-62
# [9] = test system: A498
# [10] = test system: HCT-15
# [11] = test system: MCF7
# [12] = test system: SK-MEL-2
# [13] = test system: OVCAR-8
# [14] = test system: KM12
# [15] = test system: RXF 393
# [16] = test system: SK-MEL-28
# [17] = test system: UACC-62
# [18] = test system: Hs-578T
# [19] = test system: HT-29
# [20] = test system: IGROV-1
# [21] = test system: CAKI-1
# [22] = test system: SF-539
# [23] = test system: CCRF-CEM
# [24] = test system: SK-OV-3
# [25] = test system: A549
# [26] = test system: TK-10
# [27] = test system: MOLT-4
# [28] = test system: T47D
# [29] = test system: SNB-75
# [30] = test system: U-251
# [31] = test system: MDA-MB-231
# [32] = test system: UACC-257
# [33] = test system: SNB-19
# [34] = test system: MDA-N
# [35] = test system: SW-620
# [36] = test system: NCI-H460
# [37] = test system: Malme-3M
# [38] = test system: PC-3
# [39] = test system: ACHN
# [40] = test system: HCC 2998
# [41] = test system: RPMI-8226
# [42] = test system: OVCAR-5
# [43] = test system: K562
# [44] = test system: NCI-H522
# [45] = test system: OVCAR-3
# [46] = test system: HOP-92
# [47] = test system: LOX IMVI
# [48] = test system: SK-MEL-5
# [49] = test system: NCI/ADR-RES
# [50] = test system: BT-549
# [51] = test system: HL-60
# [52] = test system: SN12C
# [53] = test system: OVCAR-4
# [54] = test system: UO-31
# [55] = test system: M14
# [56] = test system: SF-295
# [57] = test system: SF-268
# [58] = test system: NCI-H23
# [59] = test system: DU-145
smiles,measurement,setting,value
O=C1c2cccnc2-c2nccc3c2c1nc1ccc(Br)cc13,GI50,[1],12 nM (active)
same,GI50,[2],19.9 nM (active)
same,GI50,[3],88.7 nM (active)
same,GI50,[4],< 13.6 nM (active)
same,GI50,[5],24.8 nM (active)
same,GI50,[6],94.8 nM (active)
same,GI50,[7],438 nM (active)
same,GI50,[8],31 nM (active)
same,GI50,[9],85.3 nM (active)
same,GI50,[10],45 nM
same,GI50,[11],< 16.2 nM (active)
same,GI50,[12],72.6 nM (active)
same,GI50,[13],66.2 nM (active)
same,GI50,[14],65.6 nM (active)
same,GI50,[15],18.4 nM (active)
same,GI50,[16],25.2 nM (active)
same,GI50,[17],56.9 nM (active)
same,GI50,[18],120 nM (active)
same,GI50,[19],282 nM (active)
same,GI50,[20],38 nM (active)
same,GI50,[21],53.6 nM (active)
same,GI50,[22],60.1 nM (active)
same,GI50,[23],< 10 nM (active)
same,GI50,[24],145 nM (active)
same,GI50,[25],188 nM (active)
same,GI50,[26],273 nM (active)
same,GI50,[27],184 nM (active)
same,GI50,[28],78.9 nM (active)
same,GI50,[29],129 nM (active)
same,GI50,[30],36.3 nM (active)
same,GI50,[31],< 20.1 nM (active)
same,GI50,[32],53.6 nM (active)
same,GI50,[33],136 nM (active)
same,GI50,[34],109 nM (active)
same,GI50,[35],40.4 nM (active)
same,GI50,[36],65 nM (active)
same,GI50,[37],102 nM (active)
same,GI50,[38],42.6 nM (active)
same,GI50,[39],26.3 nM (active)
same,GI50,[40],164 nM (active)
same,GI50,[41],34.7 nM (active)
same,GI50,[42],106 nM (active)
same,GI50,[43],23.8 nM (active)
same,GI50,[44],52.8 nM (active)
same,GI50,[45],20.7 nM (active)
same,GI50,[46],102 nM (active)
same,GI50,[47],22.1 nM (active)
same,GI50,[48],24.7 nM (active)
same,GI50,[49],34 nM (active)
same,GI50,[50],33.7 nM (active)
same,GI50,[51],18.4 nM (active)
same,GI50,[52],48.2 nM (active)
same,GI50,[53],61 nM (active)
same,GI50,[54],55.7 nM (active)
same,GI50,[55],24.3 nM (active)
same,GI50,[56],40.1 nM (active)
same,GI50,[57],24.2 nM (active)
same,GI50,[58],31.3 nM (active)
same,GI50,[59],22.5 nM (active)
